Two compounds from patent publication US5614539A, “Urea compounds which are useful as platelet aggregation inhibitors” (G. D. Searle & Co., priority 1995, dated 1997) can be followed below.

In general, IC50 refers to the concentration that inhibits the measured activity by half.

For the assay, the system named is Dog PRP (platelet aggregation). Kind of assay: In-Vitro Platelet Aggregation in PRP (ADP-induced). It counts as cell-based. Particulars: Canis lupus familiaris; dog platelet-rich plasma; ADP 50 um final concentration; 1 minute preincubation at 37° C.; read-out: Dog PRP IC50 or % Inh. On the procedure:
In-Vitro Platelet Aggregation in PRP
Healthy male or female dogs were fasted for 8 hours prior to drawing blood; then 30 ml whole blood was collected using a butterfly needle and 30 cc plastic syringe with 3 ml of 0.129M buffered sodium citrate (3.8%). The syringe was rotated carefully as blood was drawn to mix the citrate. Platelet-rich plasma (PRP) was prepared by centrifugation at 975×g for 3.17 minutes at room temperature allowing the centrifuge to coast to a stop without braking. The PRP was removed from the blood with a plastic pipette and placed in a plastic capped, 50 mL Corning conical sterile centrifuge tube which was held at room temperature. Platelet poor plasma (PPP) was prepared by centrifuging the remaining blood at 2000×g for 15 minutes at room temperature allowing the centrifuge to coast to a stop without braking. The PRP was adjusted with PPP to a count of 2-3×10^8 platelets per mL. 400 uL of the PRP preparation and 50 uL of the compounds solution to be tested or saline were preincubated for 1 minute at 37° C. in a […].). 50 uL of adenosine 5' diphosphate (ADP) (50 um final concentration) was added to the cuvettes and the aggregation was monitored for 1 minute. […] Results are calculated as follows: Percent of control=[(maximal OD minus initial OD of compound) divided by (maximal OD minus initial OD of control saline)]×100. […]

The structures appear in SMILES notation.

For the compound `N=C(N)NCCCCCCCNC(=O)NC(CC(=O)O)c1cccnc1` (stereo not drawn) [Example 2, β-[[[[7-[[aminoiminomethyl]amino]heptyl]amino]carbonyl]amino]-3-pyridinepropanoic acid], the IC50 was found to be 800 nM.

Turning to `N=C(N)NCCCCCCCNC(=O)N[C@@H](CC(=O)O)C(=O)N[C@@H](Cc1ccccc1)C(=O)O` [Example 4, N-[N-[[[[7-[[aminoiminomethyl]amino]heptyl]amino]carbonyl]amino]-L-α-aspartyl]-L-phenylalanine], the IC50 is 1900 nM.
